In one experiment the test system is TbrPDEB1. Also noted: method as in Blaazer et al., 2018; Kunz et al., 2017b. Particulars: Fig. 2; ref Blaazer et al., 2018; Kunz et al., 2017b; cited from earlier work.
For another experiment, the system named is T.b. brucei. Details: method as in Blaazer et al., 2018; Kunz et al., 2017b. The conditions noted are these: Fig. 2; ref Blaazer et al., 2018; Kunz et al., 2017b; cited from earlier work.
The test system of the next experiment is G. lamblia. Details: method as in Blaazer et al., 2018; Kunz et al., 2017b. The conditions noted are these: Fig. 2; ref Blaazer et al., 2018; Kunz et al., 2017b; cited from earlier work.
The subject of the next experiment is GlPDE. Also noted: method as in Blaazer et al., 2018; Kunz et al., 2017b. The conditions noted are these: Fig. 2; ref Blaazer et al., 2018; Kunz et al., 2017b; cited from earlier work.
The subject of experiment [1] is Trypanosoma brucei brucei. Kind of experiment: Growth inhibition of T. b. brucei. It counts as cell-based. The conditions noted are these: mean ± standard deviation, n ≥ 2. How it is done: (§1) G. lamblia trophozoites (WBC6) were seeded into 96-well-plates in 0.2 mL Keister-medium containing 10^3 trophozoites per well in the presence of the compounds dissolved in dimethyl sulfoxide (DMSO, final concentration 0.25%) or with DMSO as a solvent control and incubated for 72 h at 37 °C in an anaerobic chamber (80% N2, 10% H2, 10% CO2). Then, plates were centrifuged (2 min, 1000 rpm), medium was removed, and cells were washed once with PBS containing 1 g/L glucose. Then, PBS-glucose containing 10 mg/L resazurin was added, and plates were incubated for up to 5 h at 37 °C. Fluorescence reading (ex 530 nm/em 590 nm) was performed at various time points, and the linear increase of fluorescence was used as a marker for cell viability. IC50 values were calculated using the logit-log algorithm and are given as mean values with 95%-confidence intervals ([Müller et al., 2020]; [Müller and Hemphill, 2013]; [Müller and Müller, 2019]). The assays for growth inhibition of T. b. brucei, T. cruzi, L. infantum, P. falciparum and MRC-5 (human lung fibroblasts MRC-5SV40) were previously described ([Blaazer et al., 2014]). PDE activity was determined exactly as described ([de Heuvel et al., 2021]; [Kunz et al., 2005], [2017b]). All assays were carried out in triplicates and no more than 20% substrate was hydrolyzed in all reactions. Compounds were dissolved in DMSO and the final DMSO concentration was 1% in all reaction mixes. Control reactions with DMSO alone were always included. Data were analyzed using the GraphPad Prism software package (v7.0, GraphPad, San Diego).

A further experiment has as its system Leishmania infantum. Nature of the experiment: Growth inhibition of L. infantum. Particulars: mean ± standard deviation, n ≥ 2. Type of experiment: cell-based. The protocol:
as §1

Another experiment concerns Trypanosoma cruzi. Nature of the experiment: Growth inhibition of T. cruzi. Type of experiment: cell-based. Particulars: mean ± standard deviation, n ≥ 2. How it is done: as §1
The target of another experiment is GlPDE (aa588-1371) (Giardia lamblia, UniProt A0A644EZ75). Kind of experiment: GlPDE activity inhibition. Type of experiment: biochemical. Particulars: for Ki: mean ± standard deviation, n ≥ 2. How it is done: as §1
Figure S69. Representative dose-response curve of 11 against GlPDE (aa588-1371) enzyme (substrate concentration: 1 μM).

Another experiment has as its target hPDE4B (Homo sapiens, UniProt Q07343). Kind of experiment: Human PDE4 activity inhibition. Type of experiment: biochemical. Particulars: for Ki: mean ± standard deviation, n ≥ 2. The protocol: as §1
Experiment [2] concerns MRC-5 (human lung fibroblasts MRC-5SV40). Kind of experiment: Cytotoxicity on MRC-5 cells. Type of experiment: cell-based. The protocol: as §1, with “[…]-medium” for “Keister-medium”, “([[…],” for “([Müller et al., 2020]; [Müller and Hemphill, 2013]; [Müller and Müller,”
Another experiment relates to Plasmodium falciparum. Nature of the experiment: Growth inhibition of P. falciparum. It counts as cell-based. Particulars: mean ± standard deviation, n ≥ 2, read-out: IC50 (µM) P.f. How it is done:
as §1, with “[…]-medium” for “Keister-medium”, “([[…],” for “([Müller et al., 2020]; [Müller and Hemphill, 2013]; [Müller and Müller,”

Experiment [3] concerns G. lamblia trophozoites (WBC6). Nature of the experiment: Growth inhibition of G. lamblia trophozoites (WBC6), resazurin viability read-out. It counts as cell-based, Giardia lamblia. The conditions noted are these: for IC50: Giardia duodenalis; for fold decrease of anti-Giardia activity: compared with 18; for fold higher anti-Giardia activity than metronidazole: versus metronidazole IC50 = 0.8 μM. The protocol: as §1
Figure S67. Representative drug susceptibility curves of G. lamblia WBC6. Trophozoites were grown anaerobically in the presence of various concentrations of 17 (red), 29 (blue) and the reference compound metronidazole (MET, black). After 72 h, growth of cells was monitored by a cell viability assay based on the reduction of resazurin to a pink fluorescent product. Measured fluorescence units were normalized to the DMSO control. Data points and error bars represent mean and standard error of 4 replicates.
(In general: The colour change of resazurin is a common sign of viable cells or microbes.)

Setting [4] is: MRC5, mean ± standard deviation, n ≥ 2, read-out: IC50 (nM) MRC-5.
[5] abbreviates: WBC6 trophozoites, 72 h, anaerobic, mean ± standard error (95% CI, logit-log), quadruplicates, read-out: IC50 (nM) G.l.

The text below walks through data of paper PMC9213561, “3-nitroimidazo[1,2-b]pyridazine as a novel scaffold for antiparasitics with sub-nanomolar anti-Giardia lamblia activity” (International Journal for Parasitology: Drugs and Drug …, 2022).

Structures are written as SMILES. Where two headings read alike, the source gives them in different places.

For orientation: IC50 means the point on the concentration scale where inhibition reaches its midpoint. In general, Ki refers to the equilibrium dissociation constant of an inhibitor or competing ligand from its target.

Chain of hPDE4B (Q07343 330-659 limits assumed): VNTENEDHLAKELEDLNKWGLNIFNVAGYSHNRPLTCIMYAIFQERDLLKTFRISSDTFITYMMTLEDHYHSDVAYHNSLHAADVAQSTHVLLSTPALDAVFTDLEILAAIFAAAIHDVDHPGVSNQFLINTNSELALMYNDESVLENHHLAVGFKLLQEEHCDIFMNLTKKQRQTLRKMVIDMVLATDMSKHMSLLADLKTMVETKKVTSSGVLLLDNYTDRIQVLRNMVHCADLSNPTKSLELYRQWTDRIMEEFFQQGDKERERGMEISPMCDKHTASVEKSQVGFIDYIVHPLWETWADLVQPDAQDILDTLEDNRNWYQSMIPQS

Take `COc1ccc(C2=NN(C3CCN(S(=O)(=O)c4cccc5cccnc45)CC3)C(=O)[C@@H]3CC=CC[C@H]23)cc1OC` [Compound 10]: the IC50 with TbrPDEB1 was 0.03 µM; in the experiment with T.b. brucei, 0.42 µM; in the experiment with G. lamblia, 1.5 µM; in the experiment with GlPDE it was 3 µM.
For `COc1ccc(C2=NN(C3CCN(c4ccc5ncc([N+](=O)[O-])n5n4)CC3)C(=O)CC2)cc1Cl` [Compound 19, 6-(3-Chloro-4-methoxyphenyl)-2-(1-(3-nitroimidazo[1,2-b]pyridazin-6-yl)piperidin-4-yl)-4,5-dihydropyridazin-3(2H)-one], the IC50 was 22.2 ± 15.9 µM in experiment [1]; 28.9 ± 31 µM in the experiment on Leishmania infantum; 5.4 ± 4.1 µM in the experiment with Trypanosoma cruzi; more than 64000 nM in [2] (setting [4]); 7.2 ± 0.4 µM in the experiment with Plasmodium falciparum; 19 ± 3.2 nM in experiment [3] (setting [5]). The Ki on GlPDE (aa588-1371) is more than 1000 µM; on hPDE4B it was 0.2 ± 0.05 µM. Moreover, the “fold decrease of affinity for hPDE4B” value at hPDE4B (compared to 18) was 60 fold. Also, the “fold decrease of anti-Giardia activity” value in experiment [3] stood at 100 fold. Further, the “fold higher anti-Giardia activity than metronidazole” value in experiment [3] was determined as 40 fold.
Consider `COc1ccc(C2=NN(C3CCCCCC3)C(=O)[C@H]3CC=CC[C@@H]23)cc1OCCCCOc1ccc(-c2nn[nH]n2)cc1` [Compound 9], for which the IC50 in the experiment on TbrPDEB1 was […]; in the experiment on T.b. brucei it was 0.08 µM; in the experiment on G. lamblia, 6.9 µM; with GlPDE, 0.8 µM.
As for `COc1ccc(C2=NN(C3CCN(c4ccc5ncc([N+](=O)[O-])n5n4)CC3)C(=O)[C@@H]3CC=CC[C@H]23)cc1OC` [Compound 11, (4aS,8aR)-4-(3,4-Dimethoxyphenyl)-2-(1-(3-nitroimidazo[1,2-b]pyridazin-6-yl)piperidin-4-yl)-4a,5,8,8a-tetrahydrophthalazin-1(2H)-one], the IC50 in [1] was 1 ± 0.7 µM; in the experiment with Leishmania infantum, 27.4 ± 25.3 µM; in the experiment with Trypanosoma cruzi, 5.9 ± 4.5 µM; in experiment [2] (setting [4]), more than 64000 nM; with Plasmodium falciparum it was 6.3 ± 0.4 µM; in experiment [3] (setting [5]), 0.5 ± 0.2 nM. Moreover, the Ki was found to be 0.5 ± 0.3 µM at GlPDE (aa588-1371) and 0.00016 ± 2e-05 µM on hPDE4B. The “fold more active against human PDE4 than against GlPDE” value at hPDE4B (Ki hPDE4 versus Ki GlPDE) is on record as 3,000 fold. Also, in experiment [3], the “fold higher anti-Giardia activity than metronidazole” value is > 1,000 fold.
Consider `COc1ccc(C2=NN(C3CCN(c4ccc5nccn5n4)CC3)C(=O)CC2)cc1OC` [Compound 20, 6-(3,4-Dimethoxyphenyl)-2-(1-(imidazo[1,2-b]pyridazin-6-yl)piperidin-4-yl)-4,5-dihydropyridazin-3(2H)-one], for which the IC50 was more than 64 µM in [1]; more than 64 µM with Leishmania infantum; more than 64 µM in the experiment on Trypanosoma cruzi; more than 64000 nM in [2] (setting [4]); more than 64 µM with Plasmodium falciparum; 930 ± 100 nM in experiment [3] (setting [5]). For the same compound, at GlPDE (aa588-1371), the “GlPDE inhibition (in words)” value is “no GlPDE inhibition”. Also, the Ki at GlPDE (aa588-1371) is more than 1000 µM; at hPDE4B, 0.005 ± 0.001 µM. In addition, in experiment [3], the “fold decrease of anti-Giardia activity” value was 4,500 fold.
Consider `COc1ccc(C2=NN(C3CCN(c4ccc5ncc([N+](=O)[O-])n5n4)CC3)C(=O)CC2)cc1OC` [Compound 18, 6-(3,4-Dimethoxyphenyl)-2-(1-(3-nitroimidazo[1,2-b]pyridazin-6-yl)piperidin-4-yl)-4,5-dihydropyridazin-3(2H)-one], for which the IC50 in [1] was more than 64 µM; with Leishmania infantum it was 26.4 ± 8.6 µM; in the experiment on Trypanosoma cruzi, 50.9 ± 4.7 µM; in experiment [2] (setting [4]), more than 64000 nM; in the experiment with Plasmodium falciparum, 33.8 ± 37 µM; in [3] (setting [5]), 0.2 ± 0.1 nM. The IC50 in experiment [3] (text value in pM, read-out: anti-Giardia IC50 on growth inhibition) is approximately 0.2 nM. Moreover, the “GlPDE Ki over IC50 for Giardia growth inhibition” value on GlPDE (aa588-1371) was “over 50,000 fold”. Moreover, the results for the Ki at GlPDE (aa588-1371) and on hPDE4B were more than 10 µM and 0.0032 ± 0.0004 µM, respectively. For the same compound, the “fold decrease of hPDE4 affinity” value at hPDE4B (compared with 11) came out at 20 fold. The “fold increase in anti-Giardia potency” value in [3] (compared with 11 (cyclohexene ring removed)) is given as 2.5 fold.
`CN(C)c1ccc2ncc([N+](=O)[O-])n2n1` [Compound 21, N,N-Dimethyl-3-nitroimidazo[1,2-b]pyridazin-6-amine]: the IC50 in experiment [1] is more than 64 µM; with Leishmania infantum it was more than 64 µM; in the experiment with Trypanosoma cruzi, more than 64 µM; in experiment [2] (setting [4]) it was more than 64000 nM; with Plasmodium falciparum it was more than 64 µM; in experiment [3] (setting [5]), 22 ± 3 nM.
On to `COc1ccc(CN(C)c2ccc3ncc([N+](=O)[O-])n3n2)cc1` [Compound 30, N-(4-Methoxybenzyl)-N-methyl-3-nitroimidazo[1,2-b]pyridazin-6-amine], for which the half-maximal inhibitory concentration (IC50) in experiment [1] is more than 64 µM; with Leishmania infantum, 46.9 ± 5.5 µM; in the experiment with Trypanosoma cruzi, 29.7 ± 5.7 µM; in experiment [2] (setting [4]), more than 64000 nM; with Plasmodium falciparum, more than 64 µM; in [3] (setting [5]), 10.3 ± 1.5 nM.
In the case of `COc1cccc(COc2cc(C3=NN(C4CCN(c5ccc6ncc([N+](=O)[O-])n6n5)CC4)C(=O)[C@H]4CC=CC[C@@H]34)ccc2OC)c1` (relative stereo) [Compound 14, cis-4-(4-Methoxy-3-((3-methoxybenzyl)oxy)phenyl)-2-(1-(3-nitroimidazo[1,2-b]pyridazin-6-yl)piperidin-4-yl)-4a,5,8,8a-tetrahydrophthalazin-1(2H)-one], the IC50 in [1] was more than 64 µM; in the experiment on Leishmania infantum it was 32.5 µM; in the experiment with Trypanosoma cruzi, 31.8 ± 12.1 µM; in [2] (setting [4]), more than 64000 nM; in the experiment on Plasmodium falciparum, 0.7 ± 0.5 µM; in experiment [3] (setting [5]) it was 1 ± 0.5 nM.
With `O=[N+]([O-])c1cnc2ccc(N3CCCCC3)nn12` [Compound 23, 3-Nitro-6-(piperidin-1-yl)imidazo[1,2-b]pyridazine], the IC50 in experiment [1] was more than 64 µM; in the experiment with Leishmania infantum it was more than 64 µM; in the experiment on Trypanosoma cruzi, 32.3 ± 1.1 µM; in [2] (setting [4]) it was 28100 nM; in the experiment with Plasmodium falciparum, more than 64 µM; in experiment [3] (setting [5]) it was 3.6 ± 0.8 nM.
With `COc1ccccc1COc1cc(C2=NN(C3CCN(c4ccc5ncc([N+](=O)[O-])n5n4)CC3)C(=O)[C@H]3CC=CC[C@@H]23)ccc1OC` (relative stereo) [Compound 16, cis-4-(4-Methoxy-3-((2-methoxybenzyl)oxy)phenyl)-2-(1-(3-nitroimidazo[1,2-b]pyridazin-6-yl)piperidin-4-yl)-4a,5,8,8a-tetrahydrophthalazin-1(2H)-one], the IC50 worked out at 1.4 ± 0.4 µM in experiment [1]; 30.6 ± 2.3 µM in the experiment on Leishmania infantum; 11.2 ± 7.9 µM with Trypanosoma cruzi; 48900 ± 21400 nM in experiment [2] (MRC5, Table S1, mean ± standard deviation, n ≥ 2, read-out: IC50 (µM) MRC-5); 49000 nM in experiment [2] (setting [4]); 1.1 ± 0.5 µM in the experiment with Plasmodium falciparum. For the same compound, the IC50 in experiment [3] (setting [5]) came out at 2.8 ± 0.8 nM.
